# Values quoted from earlier work as cited in patent US20220031737A1, “PHARMACEUTICAL COMPOSITIONS COMPRISING CHROMIUM AND CARBOHYDRATE BLOCKERS” (GluCare LLC, priority 2016, published 2022).
# What was measured:
# [1] = overweight African-American females, caloric restriction and exercise combined with oral NBC
# [2] = Sprague-Dawley rats, gavage, % of control
# [3] = 1,000 μg of chromium per day
compound,measurement,setting,value
niacin-bound chromium [NBC],Fat loss and muscle loss compared to control group without NBC supplement,[1],increased fat loss and reduced muscle loss significantly
O=C[C@H](O)[C@@H](O)[C@@H](O)CO [L-arabinose],"Glucose elevations above baseline over four hours following rice starch challenge, of control",[2],85%
[Cr] [chromium],Relief of symptoms of type 2 diabetes,[3],highly effective
